According to article PMC10657444, “Design and evaluation of tadpole-like conformational antimicrobial peptides” (Communications Biology, 2023):
≈ marks a conversion by molar mass, not a printed value. Read-outs that look alike come from different tables or passages of the source.

System: MRSA USA 300
Assay: microbe, parasite or virus in culture
Format: cell-based, Staphylococcus aureus
Conditions: for MIC: Staphylococcus aureus
Method: MRSA USA 300 and K. pneumoniae ATCC 700603 were employed to assess the development of resistance. From inoculated microtiter panels, an aliquot of the well with the highest concentration permitting growth was taken and back diluted in fresh media to a turbidity of a 0.5 McFarland standard. This suspension was then further diluted and used to inoculate a fresh MIC panel resulting in a final concentration of 5 × 10^6 CFU/mL. Panels were incubated according to CLSI guidelines (M07, 11th edition, 2018), MICs were recorded and the next inoculum was prepared from the well containing the highest concentration of drug that allowed growth in identical fashion as described above.

`O=C(O)c1cn(C2CC2)c2cc(N3CCNCC3)c(F)cc2c1=O` [ciprofloxacin, reference compound] was tested, and the MIC (0 h, read-out: Concentration (MIC in drug resistance assay), MRSA USA 300, day 0) was 1 mg/L (≈ 3.02 µM), the MIC (24 h, read-out: Concentration (MIC in drug resistance assay), MRSA USA 300, day 1) was 0.5 mg/L (≈ 1.51 µM) and the MIC (48 h, read-out: Concentration (MIC in drug resistance assay), MRSA USA 300, day 2) was 1 mg/L (≈ 3.02 µM). For the same molecule, the MIC (72 h, read-out: Concentration (MIC in drug resistance assay), MRSA USA 300, day 3) was 1 mg/L (≈ 3.02 µM), the MIC (96 h, read-out: Concentration (MIC in drug resistance assay), MRSA USA 300, day 4) was 2 mg/L (≈ 6.04 µM) and the MIC (120 h, read-out: Concentration (MIC in drug resistance assay), MRSA USA 300, day 5) was 1 mg/L (≈ 3.02 µM). For the same molecule, the MIC (144 h, read-out: Concentration (MIC in drug resistance assay), MRSA USA 300, day 6) was 1 mg/L (≈ 3.02 µM), the MIC (168 h, read-out: Concentration (MIC in drug resistance assay), MRSA USA 300, day 7) was 2 mg/L (≈ 6.04 µM) and the MIC (192 h, read-out: Concentration (MIC in drug resistance assay), MRSA USA 300, day 8) was 4 mg/L (≈ 12.1 µM). The MIC (216 h, read-out: Concentration (MIC in drug resistance assay), MRSA USA 300, day 9) was 4 mg/L (≈ 12.1 µM), the MIC (240 h, read-out: Concentration (MIC in drug resistance assay), MRSA USA 300, day 10) was 2 mg/L (≈ 6.04 µM) and the MIC (264 h, read-out: Concentration (MIC in drug resistance assay), MRSA USA 300, day 11) was 1 mg/L (≈ 3.02 µM). The MIC (288 h, read-out: Concentration (MIC in drug resistance assay), MRSA USA 300, day 12) was 4 mg/L (≈ 12.1 µM), the MIC (312 h, read-out: Concentration (MIC in drug resistance assay), MRSA USA 300, day 13) was 2 mg/L (≈ 6.04 µM) and the MIC (336 h, read-out: Concentration (MIC in drug resistance assay), MRSA USA 300, day 14) was 2 mg/L (≈ 6.04 µM). The MIC (360 h, read-out: Concentration (MIC in drug resistance assay), MRSA USA 300, day 15) was 2 mg/L (≈ 6.04 µM), the MIC (384 h, read-out: Concentration (MIC in drug resistance assay), MRSA USA 300, day 16) was 2 mg/L (≈ 6.04 µM) and the MIC (408 h, read-out: Concentration (MIC in drug resistance assay), MRSA USA 300, day 17) was 2 mg/L (≈ 6.04 µM). The MIC (432 h, read-out: Concentration (MIC in drug resistance assay), MRSA USA 300, day 18) was 2 mg/L (≈ 6.04 µM), the MIC (456 h, read-out: Concentration (MIC in drug resistance assay), MRSA USA 300, day 19) was 2 mg/L (≈ 6.04 µM) and the MIC (480 h, read-out: Concentration (MIC in drug resistance assay), MRSA USA 300, day 20) was 4 mg/L (≈ 12.1 µM). The MIC (504 h, read-out: Concentration (MIC in drug resistance assay), MRSA USA 300, day 21) was 2 mg/L (≈ 6.04 µM), the MIC (528 h, read-out: Concentration (MIC in drug resistance assay), MRSA USA 300, day 22) was 2 mg/L (≈ 6.04 µM) and the MIC (552 h, read-out: Concentration (MIC in drug resistance assay), MRSA USA 300, day 23) was 2 mg/L (≈ 6.04 µM). The MIC (576 h, read-out: Concentration (MIC in drug resistance assay), MRSA USA 300, day 24) was 2 mg/L (≈ 6.04 µM), the MIC (600 h, read-out: Concentration (MIC in drug resistance assay), MRSA USA 300, day 25) was 2 mg/L (≈ 6.04 µM) and the MIC (624 h, read-out: Concentration (MIC in drug resistance assay), MRSA USA 300, day 26) was 4 mg/L (≈ 12.1 µM). The MIC (648 h, read-out: Concentration (MIC in drug resistance assay), MRSA USA 300, day 27) was 2 mg/L (≈ 6.04 µM), the MIC (672 h, read-out: Concentration (MIC in drug resistance assay), MRSA USA 300, day 28) was 2 mg/L (≈ 6.04 µM) and the MIC (696 h, read-out: Concentration (MIC in drug resistance assay), MRSA USA 300, day 29) was 2 mg/L (≈ 6.04 µM). The MIC (read-out: Concentration (MIC in drug resistance assay), MRSA USA 300, day 30) was 4 mg/L (≈ 12.1 µM), the MIC (read-out: Concentration (MIC in drug resistance assay), MRSA USA 300, day 31) was 8 mg/L (≈ 24.1 µM) and the MIC (read-out: Concentration (MIC in drug resistance assay), MRSA USA 300, day 32) was 32 mg/L (≈ 96.6 µM). For the same molecule, the MIC (read-out: Concentration (MIC in drug resistance assay), MRSA USA 300, day 33) was 16 mg/L (≈ 48.3 µM), the MIC (read-out: Concentration (MIC in drug resistance assay), MRSA USA 300, day 34) was 16 mg/L (≈ 48.3 µM) and the MIC (read-out: Concentration (MIC in drug resistance assay), MRSA USA 300, day 35) was 16 mg/L (≈ 48.3 µM). It also gave an MIC (read-out: Concentration (MIC in drug resistance assay), MRSA USA 300, day 36) of 32 mg/L (≈ 96.6 µM), an MIC (read-out: Concentration (MIC in drug resistance assay), MRSA USA 300, day 37) of 32 mg/L (≈ 96.6 µM) and an MIC (read-out: Concentration (MIC in drug resistance assay), MRSA USA 300, day 38) of 32 mg/L (≈ 96.6 µM). The MIC (read-out: Concentration (MIC in drug resistance assay), MRSA USA 300, day 39) was 63 mg/L (≈ 190 µM), the MIC (read-out: Concentration (MIC in drug resistance assay), MRSA USA 300, day 40) was 64 mg/L (≈ 193 µM) and the “increase in MIC after 40 passages” value (serial passage at sub-MIC) was 64 fold.
